# Where a name gives a salt, the structure may show the parent alone.
# Test: in vitro
# Details: human, hek293t cells
row,SMILES,"viability at 48 h, 25 µM [%]"
1,"C=CC(=O)N(CC)CC(=O)N1CCCC(c2nccn2C)C1 (centres unmarked) [3-F03, N-ethyl-N-{2-[3-(1-methyl-1H-imidazol-2-yl)piperidin-1-yl]-2-oxoethyl}prop-2-enamide]",106
2,"N#CC(=Cc1c(F)cccc1Cl)C(=O)Nc1ccc(C(=O)O)cc1 [9-P06, 4-[3-(2-chloro-6-fluorophenyl)-2-cyanoprop-2-enamido]benzoic acid]",142
3,"COc1cccc(NC(=O)C(C#N)=Cc2c[nH]c(-c3ccccc3)n2)c1 [9-C20, 2-cyano-N-(3-methoxyphenyl)-3-(2-phenyl-1H-imidazol-4-yl)prop-2-enamide]",108
4,"C=CC(=O)N1CCCN(S(=O)(=O)c2ccc(OC)cc2)CC1 [3-G10, 1-[4-(4-methoxybenzenesulfonyl)-1,4-diazepan-1-yl]prop-2-en-1-one]",96.8
5,"O=C(CCl)NCc1cc(O)ccc1Cl [7-J21, 2-chloro-N-[(2-chloro-5-hydroxyphenyl)methyl]acetamide]",0.249
6,"C=CC(=O)N1CCC(C(=O)N2Cc3ccccc3C[C@H]2C(N)=O)CC1 [3-C19, (3S)-2-[1-(prop-2-enoyl)piperidine-4-carbonyl]-1,2,3,4-tetrahydroisoquinoline-3-carboxamide]",29.6
7,"N#CC(=Cc1ccco1)C(=O)NC1CC1 [8-N21, 2-cyano-N-cyclopropyl-3-(furan-2-yl)prop-2-enamide]",112
8,"C=CC(=O)NC1CCCN(C(=O)CCC(F)(F)F)C1 (centres unmarked) [1-B03, N-[1-(4,4,4-trifluorobutanoyl)piperidin-3-yl]prop-2-enamide]",108
9,"C=CC(=O)N1CCCC(O)(CC(N)=O)C1 (centres unmarked) [3-K14, 2-[3-hydroxy-1-(prop-2-enoyl)piperidin-3-yl]acetamide]",101
10,"C=CC(=O)N(Cc1cn(C)cn1)[C@H]1CCCc2ccc(C)cc21 [1-J11, N-[(1S)-7-methyl-1,2,3,4-tetrahydronaphthalen-1-yl]-N-[(1-methyl-1H-imidazol-4-yl)methyl]prop-2-enamide]",88.8
11,"CCN(C(=O)CCl)c1c(N)n(Cc2ccccc2)c(=O)[nH]c1=O [4-P10, N-(6-amino-1-benzyl-2,4-dioxo-1,2,3,4-tetrahydropyrimidin-5-yl)-2-chloro-N-ethylacetamide]",65.4
12,"Cc1cnc(-c2cccc(NC(=O)C(C#N)=Cc3ccco3)c2)o1 [9-M18, 2-cyano-3-(furan-2-yl)-N-[3-(5-methyl-1,3-oxazol-2-yl)phenyl]prop-2-enamide]",116
13,"CCN(C(=O)CCl)c1ccccc1 [6-E15, 2-chloro-N-ethyl-N-phenylacetamide]",1.62
14,"C[C@@H](NC(=O)CCl)c1ccccc1 [6-O20, 2-chloro-N-[(1R)-1-phenylethyl]acetamide]",121
15,"CC(Cl)C(=O)N1CCCC1Cc1cccc(F)c1F (centres unmarked) [7-E19, 2-chloro-1-{2-[(2,3-difluorophenyl)methyl]pyrrolidin-1-yl}propan-1-one]",61.3
16,"N#CC(=Cc1cccc2ccccc12)C(=O)NCc1ccccc1 [8-O19, N-benzyl-2-cyano-3-(naphthalen-1-yl)prop-2-enamide]",48
17,"C=CC(=O)NCc1cccc(-n2cccn2)n1 [1-M14, N-{[6-(1H-pyrazol-1-yl)pyridin-2-yl]methyl}prop-2-enamide]",93.2
18,"O=C(CCl)NCc1cnn(-c2ccccc2)n1 [6-J03, 2-chloro-N-[(2-phenyl-2H-1,2,3-triazol-4-yl)methyl]acetamide]",1.68
19,"C=CC(=O)N1CC[C@H](Oc2ccccc2)C1 [3-I18, 1-[(3S)-3-phenoxypyrrolidin-1-yl]prop-2-en-1-one]",103
20,"N#CC(=Cc1cc(F)ccc1F)C(=O)Nc1cc(Cl)ccc1Cl [8-A12, 2-cyano-N-(2,5-dichlorophenyl)-3-(2,5-difluorophenyl)prop-2-enamide]",61
21,"N#CC(=Cc1ccc(-c2ccc(Cl)cc2)o1)C(=O)Nc1ccccc1 [8-O03, 3-[5-(4-chlorophenyl)furan-2-yl]-2-cyano-N-phenylprop-2-enamide]",58.3
22,"CCN(CC)S(=O)(=O)c1cccc(NC(=O)CCl)c1 [4-M07, 2-chloro-N-[3-(diethylsulfamoyl)phenyl]acetamide]",1.11
23,"C=CC(=O)NC(C)(C)c1ccc(S(N)(=O)=O)cc1F [2-P17, N-[2-(2-fluoro-4-sulfamoylphenyl)propan-2-yl]prop-2-enamide]",58.6
24,"C=CC(=O)N1CCCCC(S(C)(=O)=O)C1 (centres unmarked) [2-E17, 1-(3-methanesulfonylazepan-1-yl)prop-2-en-1-one]",110
25,"O=C(CCl)Nc1ccc(C(=O)O)cc1[N+](=O)[O-] [4-C21, 4-(2-chloroacetamido)-3-nitrobenzoic acid]",63.3
26,"Cc1ccc(C=C(C#N)C(=O)NC(C)C)o1 [8-I21, 2-cyano-3-(5-methylfuran-2-yl)-N-(propan-2-yl)prop-2-enamide]",95.7
27,"CC(Cl)C(=O)N1CCCCC1C1CCCN(C(=O)C(F)(F)F)C1 (centres unmarked) [6-F16, 2-chloro-1-[1'-(2,2,2-trifluoroacetyl)-[2,3'-bipiperidin]-1-yl]propan-1-one]",105

row,SMILES,"viability at 48 h, 25 µM [%]"
1,"C=CC(=O)N1CCN(c2nc(CC)ns2)CC1 [1-J20, 1-[4-(3-ethyl-1,2,4-thiadiazol-5-yl)piperazin-1-yl]prop-2-en-1-one]",46.2
2,"C=CC(=O)N[C@H]1C[C@H](C)S(=O)(=O)c2sccc21 [3-C14, N-[(2S,4S)-2-methyl-1,1-dioxo-2H,3H,4H-1lambda6-thieno[2,3-b]thiopyran-4-yl]prop-2-enamide]",84.1
3,"O=C(CCl)NC1CCN(Cc2cscn2)CC1 [7-H04, 2-chloro-N-{1-[(1,3-thiazol-4-yl)methyl]piperidin-4-yl}acetamide hydrochloride]",0.789
4,"CC(Cl)C(=O)NC1CCc2cc(C#N)ccc21 (centres unmarked) [5-N17, 2-chloro-N-(5-cyano-2,3-dihydro-1H-inden-1-yl)propanamide]",105
5,"C=CC(=O)NCc1nnc2n1CCCCC2 [3-N07, N-({5H,6H,7H,8H,9H-[1,2,4]triazolo[4,3-a]azepin-3-yl}methyl)prop-2-enamide]",43.2
6,"O=C1C=CC(=O)N1c1ccc(F)cc1F [10-F15, 1-(2,4-difluorophenyl)-2,5-dihydro-1H-pyrrole-2,5-dione]",89.5
7,"N#CC(=Cc1cc2cc(F)ccc2o1)C(=O)NC(N)=O [8-C22, {2-cyano-2-[(5-fluoro-1-benzofuran-2-yl)methylidene]acetyl}urea]",79.1
8,"CC(Cl)C(=O)N(C)Cc1ncnn1CC(F)F (centres unmarked) [7-C10, 2-chloro-N-{[1-(2,2-difluoroethyl)-1H-1,2,4-triazol-5-yl]methyl}-N-methylpropanamide]",97.8
9,"N#CC(=Cc1ccccc1Cl)C(=O)Nc1cccc2ncccc12 [8-C15, 3-(2-chlorophenyl)-2-cyano-N-(quinolin-5-yl)prop-2-enamide]",51
10,"C=CC(=O)N[C@H]1CCCC[C@H]1c1ccnn1C (racemic) [2-G18, rac-N-[(1R,2S)-2-(1-methyl-1H-pyrazol-5-yl)cyclohexyl]prop-2-enamide]",103
11,"Cc1noc(CC(NC(=O)CCl)c2ccccc2)n1 (centres unmarked) [5-E04, 2-chloro-N-[2-(3-methyl-1,2,4-oxadiazol-5-yl)-1-phenylethyl]acetamide]",29.3
12,"C=CC(=O)N1CCC(C(=O)NCc2cc(=O)n3ccccc3n2)CC1 [3-L12, N-({4-oxo-4H-pyrido[1,2-a]pyrimidin-2-yl}methyl)-1-(prop-2-enoyl)piperidine-4-carboxamide]",82.7
13,"N#CC(=Cc1ccco1)C(=O)NS(=O)(=O)N1CCc2ccccc21 [9-J18, 2-cyano-N-(2,3-dihydro-1H-indole-1-sulfonyl)-3-(furan-2-yl)prop-2-enamide]",116
14,"N#CC(=Cc1ccc2[nH]c(=O)[nH]c2c1)C(=O)NC1CCCC1 [9-E03, 2-cyano-N-cyclopentyl-3-(2-oxo-2,3-dihydro-1H-1,3-benzodiazol-5-yl)prop-2-enamide]",121
15,"O=C(CCl)NC(c1ccccc1)C1CCCCC1 (centres unmarked) [6-E12, 2-chloro-N-[cyclohexyl(phenyl)methyl]acetamide]",1.12
16,"COc1ccc2c(c1)CCCN(C(=O)C(C)Cl)C2 (centres unmarked) [5-D17, 2-chloro-1-(7-methoxy-2,3,4,5-tetrahydro-1H-2-benzazepin-2-yl)propan-1-one]",90.9
17,"O=C(CCl)Nc1nccc(Cl)n1 [6-C19, 2-chloro-N-(4-chloropyrimidin-2-yl)acetamide]",100
18,"COc1ccc2[nH]cc(C3=CCN(C(=O)C=CCN(C)C)CC3)c2c1 [10-F03, 4-(dimethylamino)-1-[4-(5-methoxy-1H-indol-3-yl)-1,2,3,6-tetrahydropyridin-1-yl]but-2-en-1-one]",92.2
19,"N#CC(=Cc1ccc(Cl)cc1)C(=O)Nc1nccs1 [8-C11, 3-(4-chlorophenyl)-2-cyano-N-(1,3-thiazol-2-yl)prop-2-enamide]",79
20,"C=CC(=O)NCC1=NOCC1 [3-G16, N-[(4,5-dihydro-1,2-oxazol-3-yl)methyl]prop-2-enamide]",104
21,"COC(=O)c1ccc2[nH]cc(C(=O)CCl)c2c1 [10-D05, methyl 3-(2-chloroacetyl)-1H-indole-5-carboxylate]",3.01
22,"N#CC(=Cc1ccccc1Cl)C(=O)NCc1ccccc1 [9-F13, N-benzyl-3-(2-chlorophenyl)-2-cyanoprop-2-enamide]",80.5
23,"N#Cc1ccc(NC(=O)CCl)cc1Cl [4-N03, 2-chloro-N-(3-chloro-4-cyanophenyl)acetamide]",0.427
24,"CC(CO)N(Cc1ccccc1Cl)C(=O)CCl (centres unmarked) [6-D17, 2-chloro-N-[(2-chlorophenyl)methyl]-N-(1-hydroxypropan-2-yl)acetamide]",1.39
25,"C=CC(=O)NCc1ccc(-n2ccc(C)n2)nc1 [3-H16, N-{[6-(3-methyl-1H-pyrazol-1-yl)pyridin-3-yl]methyl}prop-2-enamide]",99.7
26,"C=CC(=O)N1CCOC(c2nccs2)C1 (centres unmarked) [3-H09, 1-[2-(1,3-thiazol-2-yl)morpholin-4-yl]prop-2-en-1-one]",69.4

# — publication PMC11995724, “Antibiotic target discovery by integrated phenotypic and activity-based profiling of electrophilic fragments” (Cell chemical biology, 2025)
